Reference: patent US9302999B2, “Substituted triazoles as herbicides” (E. I. DU PONT DE NEMOURS AND COMPANY, priority 2012, dated 2016)

Tests used:
Type in all cases: in vivo
[1] = system: wheat (Triticum aestivum); experiment: Test A pre-/postemergence: wheat
How it was run: (§1)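 Pre: directed soil spray after planting in loam + sand. Post: same formulation (non-phytotoxic solvent + surfactant) on 1–2-leaf plants, 2–10 cm. Greenhouse ~10 d; visual injury 0–100 vs untreated.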

[2] = system: ducksalad (Heteranthera limosa); experiment: Test C flooded paddy test: ducksalad; conditions: scale 0 to 100 (0 no effect, 100 complete control)
How it was run: (§2)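 Plants were grown to the 2-leaf stage, pots flooded to 3 cm above soil, and test compounds applied directly to the paddy water, with that depth held throughout. After 13 to 15 days in a greenhouse, injury was visually rated against controls on a 0 (no effect) to 100 (complete control) scale.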

[3] = system: barnyardgrass (Echinochloa crus-galli); experiment: Test A pre-/postemergence: barnyardgrass
How it was run: as §1

[4] = system: barnyardgrass (Echinochloa crus-galli); experiment: Test C flooded paddy test: barnyardgrass; conditions: scale 0 to 100 (0 no effect, 100 complete control)
How it was run: as §2

[5] = system: foxtail, giant (giant foxtail, Setaria faberii); experiment: Test A pre-/postemergence: foxtail, giant
How it was run: as §1

[6] = system: sedge, umbrella (small-flower umbrella sedge, Cyperus difformis); experiment: Test C flooded paddy test: sedge, umbrella; conditions: scale 0 to 100 (0 no effect, 100 complete control)
How it was run: as §2

[7] = system: pigweed (Amaranthus retroflexus); experiment: Test A pre-/postemergence: pigweed
How it was run: as §1

rice (Oryza sativa) = experiment: Test C flooded paddy test: rice; conditions: scale 0 to 100 (0 no effect, 100 complete control)
How it was run: as §2

[8] = system: velvetleaf (Abutilon theophrasti); experiment: Test A pre-/postemergence: velvetleaf
How it was run: as §1

[9] = system: morningglory (Ipomoea spp.); experiment: Test A pre-/postemergence: morningglory
How it was run: as §1

[10] = system: crabgrass, large (large crabgrass, Digitaria sanguinalis); experiment: Test A pre-/postemergence: crabgrass, large
How it was run: as §1

corn (Zea mays) = experiment: Test A pre-/postemergence: corn
How it was run: as §1

[11] = Postemergence, 1000 g ai/ha, visual rating on 0 to 100 scale (0 no effect, 100 complete control), approximately ten days
[12] = Preemergence, 1000 g ai/ha, 0 to 100 scale, 0 is no effect, 100 is complete control
[13] = Flood (flooded paddy test), 250 g ai/ha, visual rating after 13 to 15 days
[14] = Postemergence, 125 g ai/ha, 0 to 100 scale, 0 is no effect, 100 is complete control
[15] = Postemergence, 500 g ai/ha, visual rating on 0 to 100 scale (0 no effect, 100 complete control), approximately ten days
[16] = Preemergence, 125 g ai/ha, 0 to 100 scale (0 no effect, 100 complete control)
[17] = Preemergence, 500 g ai/ha, 0 to 100 scale, 0 is no effect, 100 is complete control
[18] = Flood (flooded paddy test), 62 g ai/ha, visual rating after 13 to 15 days
[19] = Flood (flooded paddy test), 125 g ai/ha, visual rating after 13 to 15 days

## Cc1nn(-c2ccc(C(F)(F)F)cc2)nc1Cn1cnc(C(F)(F)F)c1 [Compound 96]
[1]; [11]
  Wheat plant response rating: 30
[1]; [12]
  Wheat plant response rating: 0
[2]; [13]
  Plant response rating, Ducksalad: 50
[2]; Flood, 62 g ai/ha
  Plant response rating, Ducksalad: 40
[3]; [11]
  Barnyardgrass plant response rating: 40
[3]; [12]
  Barnyardgrass plant response rating: 70
[4]; [13]
  Plant response rating, Barnyardgrass: 10
[4]; Flood, 62 g ai/ha
  Plant response rating, Barnyardgrass: 10
[5]; [11]
  Foxtail, Giant plant response rating: 60
[5]; [12]
  Foxtail, Giant plant response rating: 90
[6]; [13]
  Plant response rating, Sedge, Umbrella: 80
[6]; Flood, 62 g ai/ha
  Plant response rating, Sedge, Umbrella: 75
[7]; [11]
  Pigweed plant response rating: 90
[7]; [12]
  Pigweed plant response rating: 100
Rice (Oryza sativa); [13]
  Plant response rating, Rice: 0
Rice (Oryza sativa); Flood, 62 g ai/ha
  Plant response rating, Rice: 0
[8]; [11]
  Velvetleaf plant response rating: 70
[8]; [12]
  Velvetleaf plant response rating: 0
[9]; [11]
  Morningglory plant response rating: 80
[9]; [12]
  Morningglory plant response rating: 40
[10]; [11]
  Crabgrass, Large plant response rating: 70
[10]; [12]
  Crabgrass, Large plant response rating: 100
Corn (Zea mays); [11]
  Corn plant response rating: 30
Corn (Zea mays); [12]
  Corn plant response rating: 0

## Cc1nn(-c2ccc(C(F)(F)F)cc2)nc1Cn1c(Cl)nc(C(F)(F)F)c1Cl [Compound 11]
[1]; [14]
  Wheat plant response rating: 0
[1]; [15]
  Wheat plant response rating: 0
[1]; [16]
  Plant response rating, Wheat: 0
[1]; [17]
  Plant response rating, Wheat: 0
[2]; [18]
  Plant response rating, Ducksalad: 0
[2]; [13]
  Plant response rating, Ducksalad: 0
[3]; [14]
  Barnyardgrass plant response rating: 0
[3]; [15]
  Barnyardgrass plant response rating: 0
[3]; [16]
  Plant response rating, Barnyardgrass: 0
[3]; [17]
  Plant response rating, Barnyardgrass: 0
[4]; [18]
  Plant response rating, Barnyardgrass: 0
[4]; [13]
  Plant response rating, Barnyardgrass: 0
[5]; [14]
  Foxtail, Giant plant response rating: 0
[5]; [15]
  Foxtail, Giant plant response rating: 0
[5]; [16]
  Plant response rating, Foxtail, Giant: 0
[5]; [17]
  Plant response rating, Foxtail, Giant: 0
[6]; [18]
  Plant response rating, Sedge, Umbrella: 0
[6]; [13]
  Plant response rating, Sedge, Umbrella: 0
[7]; [14]
  Pigweed plant response rating: 0
[7]; [15]
  Pigweed plant response rating: 20
[7]; [16]
  Plant response rating, Pigweed: 0
[7]; [17]
  Plant response rating, Pigweed: 0
Rice (Oryza sativa); [18]
  Plant response rating, Rice: 0
Rice (Oryza sativa); [13]
  Plant response rating, Rice: 0
[8]; [14]
  Velvetleaf plant response rating: 0
[8]; [15]
  Velvetleaf plant response rating: 0
[8]; [16]
  Plant response rating, Velvetleaf: 0
[8]; [17]
  Plant response rating, Velvetleaf: 0
[9]; [14]
  Morningglory plant response rating: 0
[9]; [15]
  Morningglory plant response rating: 0
[9]; [16]
  Plant response rating, Morningglory: 0
[9]; [17]
  Plant response rating, Morningglory: 0
[10]; [14]
  Crabgrass, Large plant response rating: 0
[10]; [15]
  Crabgrass, Large plant response rating: 0
[10]; [16]
  Plant response rating, Crabgrass, Large: 0
[10]; [17]
  Plant response rating, Crabgrass, Large: 0
Corn (Zea mays); [14]
  Corn plant response rating: 0
Corn (Zea mays); [15]
  Corn plant response rating: 0
Corn (Zea mays); [16]
  Plant response rating, Corn: 0
Corn (Zea mays); [17]
  Plant response rating, Corn: 0

## Cc1nn(-c2ccc(C(F)(F)F)cn2)nc1Cn1cnc(C(F)(F)F)n1 [Compound 8]
[1]; [14]
  Wheat plant response rating: 0
[1]; [15]
  Wheat plant response rating: 20
[1]; [16]
  Plant response rating, Wheat: 0
[1]; [17]
  Plant response rating, Wheat: 10
[2]; [18]
  Plant response rating, Ducksalad: 0
[2]; [19]
  Plant response rating, Ducksalad: 0
[2]; [13]
  Plant response rating, Ducksalad: 45
[2]; Flood, 31 g ai/ha
  Plant response rating, Ducksalad: 0
[3]; [14]
  Barnyardgrass plant response rating: 10
[3]; [15]
  Barnyardgrass plant response rating: 80
[3]; [16]
  Plant response rating, Barnyardgrass: 20
[3]; [17]
  Plant response rating, Barnyardgrass: 80
[4]; [18]
  Plant response rating, Barnyardgrass: 0
[4]; [19]
  Plant response rating, Barnyardgrass: 0
[4]; [13]
  Plant response rating, Barnyardgrass: 0
[4]; Flood, 31 g ai/ha
  Plant response rating, Barnyardgrass: 0
[5]; [14]
  Foxtail, Giant plant response rating: 30
[5]; [15]
  Foxtail, Giant plant response rating: 80
[5]; [16]
  Plant response rating, Foxtail, Giant: 60
[5]; [17]
  Plant response rating, Foxtail, Giant: 90
[6]; [18]
  Plant response rating, Sedge, Umbrella: 0
[6]; [19]
  Plant response rating, Sedge, Umbrella: 0
[6]; [13]
  Plant response rating, Sedge, Umbrella: 75
[6]; Flood, 31 g ai/ha
  Plant response rating, Sedge, Umbrella: 0
[7]; [14]
  Pigweed plant response rating: 60
[7]; [15]
  Pigweed plant response rating: 100
[7]; [16]
  Plant response rating, Pigweed: 90
[7]; [17]
  Plant response rating, Pigweed: 100
Rice (Oryza sativa); [18]
  Plant response rating, Rice: 0
Rice (Oryza sativa); [19]
  Plant response rating, Rice: 0
Rice (Oryza sativa); [13]
  Plant response rating, Rice: 0
Rice (Oryza sativa); Flood, 31 g ai/ha
  Plant response rating, Rice: 0
[8]; [14]
  Velvetleaf plant response rating: 30
[8]; [15]
  Velvetleaf plant response rating: 80
[8]; [16]
  Plant response rating, Velvetleaf: 20
[8]; [17]
  Plant response rating, Velvetleaf: 60
[9]; [14]
  Morningglory plant response rating: 90
[9]; [15]
  Morningglory plant response rating: 90
[9]; [16]
  Plant response rating, Morningglory: 30
[9]; [17]
  Plant response rating, Morningglory: 90
[10]; [14]
  Crabgrass, Large plant response rating: 40
[10]; [15]
  Crabgrass, Large plant response rating: 80
[10]; [16]
  Plant response rating, Crabgrass, Large: 90
[10]; [17]
  Plant response rating, Crabgrass, Large: 100
Corn (Zea mays); [14]
  Corn plant response rating: 20
Corn (Zea mays); [15]
  Corn plant response rating: 40
Corn (Zea mays); [16]
  Plant response rating, Corn: 0
Corn (Zea mays); [17]
  Plant response rating, Corn: 0

## Cc1nn(-c2ccc(C(F)(F)F)cc2)nc1Oc1ccnc(OC(F)F)c1 [Compound 48]
[1]; [14]
  Wheat plant response rating: 10
[1]; [15]
  Wheat plant response rating: 20
[1]; [16]
  Plant response rating, Wheat: 0
[1]; [17]
  Plant response rating, Wheat: 0
[2]; [18]
  Plant response rating, Ducksalad: 20
[2]; [13]
  Plant response rating, Ducksalad: 65
[3]; [14]
  Barnyardgrass plant response rating: 10
[3]; [15]
  Barnyardgrass plant response rating: 30
[3]; [16]
  Plant response rating, Barnyardgrass: 0
[3]; [17]
  Plant response rating, Barnyardgrass: 30
[4]; [18]
  Plant response rating, Barnyardgrass: 10
[4]; [13]
  Plant response rating, Barnyardgrass: 30
[5]; [14]
  Foxtail, Giant plant response rating: 30
[5]; [15]
  Foxtail, Giant plant response rating: 70
[5]; [16]
  Plant response rating, Foxtail, Giant: 40
[5]; [17]
  Plant response rating, Foxtail, Giant: 100
[6]; [18]
  Plant response rating, Sedge, Umbrella: 0
[6]; [13]
  Plant response rating, Sedge, Umbrella: 45
[7]; [14]
  Pigweed plant response rating: 100
[7]; [15]
  Pigweed plant response rating: 100
[7]; [16]
  Plant response rating, Pigweed: 40
[7]; [17]
  Plant response rating, Pigweed: 90
Rice (Oryza sativa); [18]
  Plant response rating, Rice: 10
Rice (Oryza sativa); [13]
  Plant response rating, Rice: 20
[8]; [14]
  Velvetleaf plant response rating: 30
[8]; [15]
  Velvetleaf plant response rating: 50
[8]; [16]
  Plant response rating, Velvetleaf: 0
[8]; [17]
  Plant response rating, Velvetleaf: 0
[9]; [14]
  Morningglory plant response rating: 10
[9]; [15]
  Morningglory plant response rating: 90
[9]; [16]
  Plant response rating, Morningglory: 0
[9]; [17]
  Plant response rating, Morningglory: 20
[10]; [14]
  Crabgrass, Large plant response rating: 50
[10]; [15]
  Crabgrass, Large plant response rating: 90
[10]; [16]
  Plant response rating, Crabgrass, Large: 30
[10]; [17]
  Plant response rating, Crabgrass, Large: 100
Corn (Zea mays); [14]
  Corn plant response rating: 10
Corn (Zea mays); [15]
  Corn plant response rating: 30
Corn (Zea mays); [16]
  Plant response rating, Corn: 0
Corn (Zea mays); [17]
  Plant response rating, Corn: 0
